This is an account of results in US12545659B2, “IRAK degraders and uses thereof” (Kymera Therapeutics, Inc., priority 2019, dated 2026).

One assay deals with T1, IRAK4 (Homo sapiens, UniProt Q9NWZ3).
T1 construct: endogenous in cells; host or cells: OCI-LY10
T1 sequence (Q9NWZ3 1-460): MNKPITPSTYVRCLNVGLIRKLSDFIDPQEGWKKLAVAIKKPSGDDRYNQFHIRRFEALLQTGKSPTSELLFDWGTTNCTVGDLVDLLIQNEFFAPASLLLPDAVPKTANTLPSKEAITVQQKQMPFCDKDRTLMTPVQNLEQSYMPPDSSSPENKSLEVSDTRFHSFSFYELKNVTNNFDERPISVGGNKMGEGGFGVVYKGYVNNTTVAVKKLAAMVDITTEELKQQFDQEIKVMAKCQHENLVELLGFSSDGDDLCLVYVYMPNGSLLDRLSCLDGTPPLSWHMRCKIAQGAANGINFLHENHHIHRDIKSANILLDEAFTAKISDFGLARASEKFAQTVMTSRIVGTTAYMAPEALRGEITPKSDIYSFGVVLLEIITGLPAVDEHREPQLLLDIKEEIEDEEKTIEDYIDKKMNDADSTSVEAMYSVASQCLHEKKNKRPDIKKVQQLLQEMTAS
Briefly: IRAK4 MSD Degradation in OCI-LY10. The assay is classed as cell-based. The note with it: OCI-LY10 cells, 4 hrs incubation, read-out: IRAK4 degradation in OCI-LY10 at 4 hrs: DC50. The method in brief: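 OCI-LY10 cells treated with 8-dose, 1:3 dilution series (top final 1 to 10 μM) for 4 to 24 h at 37 °C, 5% CO2. Lysate IRAK4 quantified by MSD sandwich immunoassay (mouse 2H9 capture, rabbit Y279 detection, SULFO-TAG anti-rabbit); DC50 from three-parameter logistic fit.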
Consider `Cn1c(=O)n(C2CCC(=O)NC2=O)c2cccc(CCC3CC4(CCN(C[C@H]5CC[C@H](n6cc7cc(NC(=O)c8cccc(OC(F)(F)F)n8)c(C(C)(C)O)cc7n6)CC5)CC4)C3)c21` (stereo partly shown) [I-108], for which the DC50 lay within 50 to 100 nM.
Same read-out and setting: the result for `COc1cc2nn([C@H]3CC[C@H](CN4CCC5(CC4)CC(Cc4cccc6c4n(C)c(=O)n6C4CCC(=O)NC4=O)C5)CC3)cc2cc1NC(=O)c1cccc(C(F)(F)F)n1` (stereo partly shown) [I-109] reads 50 to 100 nM; that for `COc1cc2nn([C@H]3CC[C@H](CN4CCC(c5cccc6c5n(C)c(=O)n6C5CCC(=O)NC5=O)CC4)CC3)cc2cc1NC(=O)c1cccc(C(F)(F)F)n1` (stereo partly shown) [I-110], less than 50 nM; that for `COc1cc2nn([C@H]3CC[C@H](CN4CC(c5cccc6c5n(C)c(=O)n6C5CCC(=O)NC5=O)C4)CC3)cc2cc1NC(=O)c1cccc(C(F)(F)F)n1` (stereo partly shown) [I-111], 50 to 100 nM.
Same read-out and setting: with `COc1cc2nn([C@H]3CC[C@H](CN4CC(c5cccc6c5n(C)c(=O)n6C5CCC(=O)NC5=O)C4)CC3)cc2cc1NC(=O)c1cccc(C(C)(C)F)n1` (stereo partly shown) [I-112] the figure was 50 to 100 nM; with `Cn1c(=O)n(C2CCC(=O)NC2=O)c2cccc(C3CN(C[C@H]4CC[C@H](n5cc6cc(NC(=O)c7cccc(C(C)(C)F)n7)c(C(F)F)cc6n5)CC4)C3)c21` (stereo partly shown) [I-113], 50 to 100 nM.
Still for that read-out and setting: with `COc1cc2nn([C@H]3CC[C@H](CN4CCC(c5cccc6c5n(C)c(=O)n6C5CCC(=O)NC5=O)CC4)CC3)cc2cc1NC(=O)c1cccc(C(C)(C)F)n1` (stereo partly shown) [I-114] the figure was 50 to 100 nM; with `Cn1c(=O)n(C2CCC(=O)NC2=O)c2cccc(OCC3CCN(C[C@H]4CC[C@H](n5cc6cc(NC(=O)c7cccc(C(F)(F)F)n7)c(C(F)F)cc6n5)CC4)CC3)c21` (stereo partly shown) [I-115], less than 50 nM; with `CN(C[C@H]1CC[C@H](n2cc3cc(NC(=O)c4cnn5cccnc45)c(N4CCOCC4)cc3n2)CC1)C1CCN(Cc2cccc3c2n(C)c(=O)n3C2CCC(=O)NC2=O)CC1` (stereo partly shown) [I-116], less than 50 nM.
For `COc1cc2nn([C@H]3CC[C@H](CN(C)C4CCC5(CC4)CC(Cc4cccc6c4n(C)c(=O)n6C4CCC(=O)NC4=O)C5)CC3)cc2cc1NC(=O)c1cccc(C(F)(F)F)n1` (stereo partly shown) [I-117], the DC50 was 50 to 100 nM.
`Cn1c(=O)n(C2CCC(=O)NC2=O)c2cccc(OCC3CCN(C[C@H]4CC[C@H](n5cc6cc(NC(=O)c7cccc(C(F)(F)F)n7)c(C(C)(C)O)cc6n5)CC4)CC3)c21` (stereo partly shown) [I-132]: the DC50 is less than 50 nM.
Still for that read-out and setting: the result for `COc1cc2nn([C@H]3CC[C@H](CN4[C@@H]5CC[C@H]4CN(CCc4cccc6c4n(C)c(=O)n6C4CCC(=O)NC4=O)C5)CC3)cc2cc1NC(=O)c1cccc(C(F)(F)F)n1` (stereo partly shown) [I-133] reads less than 50 nM.
Turning to `COc1cc2nn([C@H]3CC[C@H](CN(C)CC#Cc4cccc5c4n(C)c(=O)n5C4CCC(=O)NC4=O)CC3)cc2cc1NC(=O)c1cccc(C(F)(F)F)n1` (stereo partly shown) [I-134], the DC50 is 50 to 100 nM.
With `Cn1c(=O)n(C2CCC(=O)NC2=O)c2cccc(CCCC3CCN(C[C@H]4CC[C@H](n5cc6cc(NC(=O)c7cccc(C(F)(F)F)n7)c(N7CCOCC7)cc6n5)CC4)CC3)c21` (stereo partly shown) [I-135], the DC50 fell in the range of 50 to 100 nM.
On to `COc1cc2nn([C@H]3CC[C@H](CN4CCC(CCNc5cccc6c5n(C)c(=O)n6C5CCC(=O)NC5=O)CC4)CC3)cc2cc1NC(=O)c1ccc(F)c(C)n1` (stereo partly shown) [I-144], for which the DC50 is less than 50 nM.
The same measure, in the same setting: the result for `COc1cc2nn([C@H]3CC[C@H](CN4CCC(CCCc5ccc6c(c5)n(C)c(=O)n6C5CCC(=O)NC5=O)CC4)CC3)cc2cc1NC(=O)c1cccc(C(F)(F)F)n1` (stereo partly shown) [I-145] reads 50 to 100 nM; that for `Cn1c(=O)n(C2CCC(=O)NC2=O)c2cccc(CCN3CCN(C[C@H]4CC[C@H](n5cc6cc(NC(=O)c7cccc(C(F)(F)F)n7)c(C(C)(C)O)cc6n5)CC4)CC3)c21` (stereo partly shown) [I-146], less than 50 nM.

The assay is the same for the next values; noted with them: OCI-LY10 cells, 24 hrs incubation, read-out: IRAK4 degradation in OCI-LY10 at 24 hrs: DC50.
With `CC(C)(O)COc1cc2nn([C@H]3CC[C@H](CN4CCC5(CC4)CC(CNc4cccc6c4C(=O)N(C4CCC(=O)NC4=O)C6=O)C5)CC3)cc2cc1NC(=O)c1cccc(C(C)(C)F)n1` (stereo partly shown) [I-118], the DC50 is 50 to 100 nM.
On the same count and under the same terms, the result for `CC(C)(O)COc1cc2nn([C@H]3CC[C@H](CN4CCC5(CC4)CC(CCNc4cccc6c4C(=O)N(C4CCC(=O)NC4=O)C6=O)C5)CC3)cc2cc1NC(=O)c1cccc(C(C)(F)F)n1` (stereo partly shown) [I-119] reads 50 to 100 nM.
Take `COc1cc2nn([C@H]3CC[C@H](CN4CCC5(CC4)CC(CCNc4cccc6c4C(=O)C(C4CCC(=O)NC4=O)C6=O)C5)CC3)cc2cc1NC(=O)c1ccnc(C)n1` (stereo partly shown) [I-120]: the DC50 lay within 50 to 100 nM.
On the same count and under the same terms, the result for `COc1cc2nn([C@H]3CC[C@H](CN4CCC5(CC4)CC(CCNc4cccc6c4C(=O)N(C4CCC(=O)NC4=O)C6=O)C5)CC3)cc2cc1NC(=O)c1ccc(F)c(C)n1` (stereo partly shown) [I-121] reads 50 to 100 nM.
As for `COc1cc2nn(C3CCC(CN4CC5(CCC(CNc6cccc7c6C(=O)N(C6CCC(=O)NC6=O)C7=O)CC5)C4)CC3)cc2cc1NC(=O)c1cccc(C(C)(F)F)n1` (stereo not shown) [I-122], the DC50 lay in the range of 50 to 100 nM.
On the same count and under the same terms, with `CC(C)(O)c1cc2nn([C@H]3CC[C@H](CN4CCC5(CC4)CC(Nc4cccc6c4C(=O)N(C4CCC(=O)NC4=O)C6=O)C5)CC3)cc2cc1NC(=O)c1cccc(S(F)(F)(F)(F)F)c1` (stereo partly shown) [I-123] the figure was 50 to 100 nM; with `CN(C[C@H]1CC[C@H](n2cc3cc(NC(=O)c4cccc(C(F)(F)F)n4)c(C(C)(C)O)cc3n2)CC1)[C@H]1CC[C@]2(CC1)C[C@H](Nc1cccc3c1C(=O)N(C1CCC(=O)NC1=O)C3=O)C2` (stereo partly shown) [I-124], less than 50 nM; with `COc1cc2nn([C@H]3CC[C@H](CN4CCC5(CC4)CC(CCNc4cccc6c4C(=O)N(C4CCC(=O)NC4=O)C6=O)C5)CC3)cc2cc1NC(=O)c1ccccn1` (stereo partly shown) [I-125], 50 to 100 nM.
Same read-out and setting: with `CN(C[C@H]1CC[C@H](n2cc3cc(NC(=O)c4cccc(C(F)(F)F)n4)c(C(C)(C)O)cc3n2)CC1)[C@H]1CC[C@@]2(CC1)C[C@H](Nc1cccc3c1C(=O)N(C1CCC(=O)NC1=O)C3=O)C2` (stereo partly shown) [I-126] the figure was 50 to 100 nM; with `CC1(C)OC(c2cccc(C(F)(F)F)n2)=Nc2cc3cn([C@H]4CC[C@H](CN5CCC6(CC5)CC(Nc5cccc7c5C(=O)N(C5CCC(=O)NC5=O)C7=O)C6)CC4)nc3cc21` (stereo partly shown) [I-127, 4-[[7-[[4-[8,8-Dimethyl-6-[6-(trifluoromethyl)-2-pyridyl]pyrazolo[3,4-g][3,1]benzoxazin-2-yl]cyclohexyl]methyl]-7-azaspiro[3.5]nonan-2-yl]amino]-2-(2,6-dioxo-3-piperidyl)isoindoline-1,3-dione], 50 to 100 nM.
Still for that read-out and setting: the result for `COc1cc2nn([C@H]3CC[C@H](CN4CCC5(CC4)CC(CNc4cccc6c4C(=O)N([C@@H]4CCC(=O)NC4=O)C6=O)C5)CC3)cc2cc1NC(=O)c1cccc(C(F)(F)F)n1` [I-130, N-[2-[4-[[2-[[[2-[(3R)-2,6-dioxo-3-piperidyl]-1,3-dioxo-isoindolin-4-yl]amino]methyl]-7-azaspiro[3.5]nonan-7-yl]methyl]cyclohexyl]-6-methoxy-indazol-5-yl]-6-(trifluoromethyl)pyridine-2-carboxamide] reads 50 to 100 nM.
For `COc1cc2nn([C@H]3CC[C@H](CN4CCC5(CC4)CC(CNc4cccc6c4C(=O)N([C@H]4CCC(=O)NC4=O)C6=O)C5)CC3)cc2cc1NC(=O)c1cccc(C(F)(F)F)n1` [I-131, N-[2-[4-[[2-[[[2-[(3S)-2,6-dioxo-3-piperidyl]-1,3-dioxo-isoindolin-4-yl]amino]methyl]-7-azaspiro[3.5]nonan-7-yl]methyl]cyclohexyl]-6-methoxy-indazol-5-yl]-6-(trifluoromethyl)pyridine-2-carboxamide], the DC50 lay within 50 to 100 nM.
Same read-out and setting: with `COc1cc2nn([C@H]3CC[C@H](CN4CCC5(CC4)CC(CCNc4cccc6c4C(=O)N(C4CCC(=O)NC4=O)C6=O)C5)CC3)c(C)c2cc1NC(=O)c1cccc(C(F)(F)F)n1` (stereo partly shown) [I-136] the figure was 50 to 100 nM; with `COc1cc2nc([C@H]3CC[C@H](CN4CCC5(CC4)CC(CCNc4cccc6c4C(=O)N(C4CCC(=O)NC4=O)C6=O)C5)CC3)oc2cc1NC(=O)c1cccc(C(F)(F)F)n1` (stereo partly shown) [I-137], 100 to 500 nM.
Turning to `CC(C)(O)COc1cc2nn([C@H]3CC[C@H](CN4CCC5(CC4)CC(CNc4cccc6c4C(=O)N(C4CCC(=O)NC4=O)C6=O)C5)CC3)cc2cc1NC(=O)c1cccc(C(F)(F)F)n1` (stereo partly shown) [I-138], the DC50 lay within 50 to 100 nM.
On to `COc1cc2nn([C@H]3CC[C@H](CN4CCC5(CC4)CC(CCNc4cccc6c4C(=O)N(C4CCC(=O)NC4=O)C6=O)C5)CC3)cc2cc1NC(=O)c1cnn2cccnc12` (stereo partly shown) [I-139], for which the DC50 was less than 50 nM.
Consider `COc1cc2nn([C@H]3CC[C@H](CN4CCC(CO[C@H]5C[C@H](Nc6cccc7c6C(=O)N(C6CCC(=O)NC6=O)C7=O)C5)CC4)CC3)cc2cc1NC(=O)c1cccc(C(C)(C)F)n1` (stereo partly shown) [I-140], for which the DC50 was 50 to 100 nM.
The same measure, in the same setting: with `O=C1CCC(N2C(=O)c3cccc(NCCC4CC5(CCN(C[C@H]6CC[C@H](n7cc8cc(NC(=O)c9cccc(C(F)(F)F)n9)c(OC(F)(F)F)cc8n7)CC6)CC5)C4)c3C2=O)C(=O)N1` (stereo partly shown) [I-141] the figure was 50 to 100 nM; with `COc1cc2nn([C@H]3CC[C@H](CN4CCC5(CC4)CC(CCNc4cccc6c4C(=O)N(C4CCC(=O)NC4=O)C6=O)C5)CC3)cc2cc1NC(=O)[C@H]1CCCCO1` (stereo partly shown) [I-142], 500 to 1000 nM.
Same read-out and setting: the result for `COc1cc2nn([C@H]3CC[C@H](CN4CCC5(CC4)CC(CCNc4cccc6c4C(=O)N(C4CCC(=O)NC4=O)C6=O)C5)CC3)cc2cc1NC(=O)[C@@H]1CCCCN1` (stereo partly shown) [I-143] reads 500 to 1000 nM.
